# Several values for one entry are separate records, joined by “and”; a condition that tells them apart may be missing. Equal values may be shown once.
# What was measured:
# [1] = target: W9 probe (tandem repeats of an oligonucleotide with a 9 bp AT-tract); experiment: DNase I footprinting on probe W9; assay type: binding
# Description: DNase I cleavage pattern in the presence of P9 and P7. Ligand concentrations are indicated at the top of each lane. The position of each of the AT-tracts is indicated by square brackets. […] This probe is composed of head-to-tail tandem repeats of an oligonucleotide with a 9 bp AT-tract.
# (§1) Synthetic oligonucleotides […] and […] were hybridized to obtain the W9 probe, oligomerized by ligation and digested with BamHI and BglII to obtain different tandem repeats. The following oligonucleotides were prepared identically: GAF31 is composed of the oligonucleotides […] and […] and, BrownI of oligonucleotides […] and […]. Fragments were purified on low-melt agarose gels and then cloned into a modified pSP64 vector, cut by BamHI and BglII. End-labeling was carried out following digestion with HindIII and a fill-in reaction with Klenow DNA polymerase. The labeled plasmid was cut with PvuII and the target fragments purified from low-melting agarose gels. The 657 bp EcoR1/Hinf1 fragment of the Drosophila histone SAR was cloned into the SmaI site of the modified pSP64 plasmid. This SAR probe was end-labeled following-digestion with EcoR1, then cut with ClaI and the resulting 347 bp fragment purified from low-melting agarose gels.
# (§2) All reactions were performed in a total volume of 40 μl. A polyamide stock solution or buffer (for reference lanes) was added to an assay buffer containing 20 kcpm radiolabeled DNA, affording final concentrations of 10 mM Tris-HCl (pH 7.4), 10 mM KCl, 10 MM MgCl, 5 mM CaCl2, 0.5 mM EDTA, 0.5 mM EGTA, 1 mM DTT and 0.1% digitonine. The solutions were allowed to equilibrate for at least 2 h at room temperature. Footprinting reactions were initiated by the addition of 2 μl of a DNase stock solution (containing −100 μg DNase I in buffer) and allowed to proceed for 2 min at room temperature. The reactions were stopped by addition of 10 μl of a solution containing 1.25 M NaCl, 100 mM EDTA. Next, 5 μl of a 1% SDS solution was added, followed by 2 μl of a solution containing 1 μg poly(dA-dT), 1 μg salmon sperm DNA and 10 μg glycogen and the DNA was ethanol precipitated (20 min at −20 C.). The reactions were resuspended in 4 μl of 80% formamide loading buffer, denatured 10 min at 85 C., cooled on ice and electrophoresed on 8% polyacrylamide denaturing gels (5% cross-link, 8 M urea) at 30 W for 1 h. The gels were dried and exposed o/n at −70 C.
# [2] = test system: variegating white reporter transgene flies (C3/2L, BL2/Y); experiment: P9 fed to flies with variegating white reporter transgene; assay type: in vivo, Drosophila melanogaster; conditions: transgene at the basis of chromosome 2L; data not shown
# Description: Although we favor the possibility that P9 and MATH20 reduce the spreading of heterochromatin toward w^m4 through long-range effects, we cannot completely rule out the possibility that a local binding site near the white gene (a local SAR) is involved. We attempted to address this issue by studying the effect of P9 on two different variegating miniwhite reporter genes called C3/2L and BL2/Y (Lu et al., 1996; Wallrath and Elgin, 1995). […] Nevertheless, we consider a local-acting mode less likely; the enormous target size of satellite III, 11 Mb versus 0.5 kb for a typical SAR, favors a long-range spreading model.
# Drosophila histone SAR = experiment: DNase I footprinting on SAR probe; assay type: binding
# Protocol: as §1, §2
# [3] = test system: GAGAA repeats (satellite V / bw^D repeats); experiment: DNase I footprinting on GAGAA repeats (GAF31 and Brown I probes); assay type: binding, Drosophila melanogaster
# Description: FIG. 3 Binding specificity of P31 and GAGA factor Panel A: DNAse I footprinting experiment with P31 and affinity cleavage with P31E are shown on GAF31 and the Brown I probes. The GAF31 and Brown I probes contains a (AAGAG)2 motif and GAGA factor (GAF) binding site from the Ubx promoter (Biggin et al., 1988). […] The Brown I oligo (a tandem repeat) includes an (AAGAG)s binding site and a degenerate P31 binding site (AACAC)2 as indicated. P31 concentrations used (nM) are indicated. Lanes labeled P31E (top) are affinity cleavage reactions with 1 nM of P31E on either probe. Binding orientations of P31E on these probes are indicated by arrowheads on the brackets pointing towards the N-terminus of the molecule. The letter G refers the G nucleotide cleavage reaction. Panel B: DNAse I footprinting experiment with purified GAGA factor (GAF) on the GAF31 probe. Note that GAF binds both the (AAGAG)2 motif and the binding site from the Ubx promoter.
# A polyamide that targets the abundant satellite V composed of GAGAA repeats (Lohe et al., 1993) was synthesized. Designing molecules that would bind to this repeat motif represented a challenge since with current knowledge, targeting of sequences containing 5′-GNG-3′ or 5′-GA-3′ with drugs composed of pyrrole and imidazole is difficult. However, successful targeting to sequences containing 5′-GTG-3′ was previously achieved using an Im-β-Im motif where β-alanine replaces the function of pyrrole (Turner et al., 1998). Since β-alanine, like pyrroles, is degenerate for […] and T^•A base pairs, we designed a compound based on these observations, to recognize a sequence composed of two tandem GAGAA repeats by systematic placement of -alanine at the N-terminal neighbor of imidazole. The binding affinity and specificity of this compound, termed P31 (=Im-β-Im-Py-β-Im-β-Im-β-Dp), were evaluated by DNAse I footprinting. For this purpose, two different probes were examined, both containing GAGAA repeats. […] The apparent binding constant of P31 for this sequence was estimated at 0.25 nM. […]
Compound,affinity for AT-tracts of 9 Ws (in words) [1],"better affinity for W9 than P7 ([1]; P9 versus P7, footprints on W9)","Kd ([1]; apparent binding affinity, DNase I footprinting, probe W9, read-out: Kdapp W9)",suppression of PEV of a variegating white reporter transgene [2],Ratio (Drosophila histone SAR; Kdapp W9 / Kdapp SAR (SAR specificity factor)),"Kd (Drosophila histone SAR; apparent binding affinity, DNase I footprinting, SAR probe, read-out: Kdapp SAR)",concentration at which bw^D repeats are protected ([3]; 2 consecutive bw^D repeats (GAGAAGAGAA)),"Kd ([3]; DNase I footprinting, read-out: apparent binding constant for two GAGAA repeats)",affinity for target binding site (in words) ([3]; two GAGAA repeats)
"CN(C)CCCNC(=O)CCNC(=O)c1cc(NC(=O)c2cc(NC(=O)c3cc(NC(=O)CCNC(=O)c4cc(NC(=O)c5cc(NC(=O)c6cccn6C)cn5C)cn4C)cn3C)cn2C)cn1C [Compound P9, PyPyPy-β-PyPyPy-β-Dp]",subnanomolar affinity,100 fold,~0.75 nM and 0.75 nM,did not suppress PEV,1.4,0.55 nM,,,
"CN(C)CCCNC(=O)CCNC(=O)c1nc(NC(=O)CCNC(=O)c2nc(NC(=O)CCNC(=O)c3cc(NC(=O)c4nc(NC(=O)CCNC(=O)c5nccn5C)cn4C)cn3C)cn2C)cn1C [Compound P31, Im-β-Im-Py-β-Im-β-Im-β-Dp]",,,,,,,0.1 nM,0.25 nM,subnanomolar affinity

# — US20030157715A1, “Modulation of chromosome function by chromatin remodeling agents” (priority 2000, published 2003)
